Assay [1] addresses T1, S1P1 (Homo sapiens (Human), UniProt P21453). Kind of assay: 35S-GTPγS binding, S1P1 membranes. The format is biochemical. To be noted: membranes from CHO cells expressing S1P1. The procedure:
Receptor binding assay: Membranes were prepared from CHO cells expressing S1P1 or S1P3 for use in ligand and 35S-GTPγS binding studies. Cells were suspended in 50 mM TRIS, pH 7.4, 2 mM EDTA, 250 mM Sucrose (buffer A) and 1× Complete protease inhibitor cocktail (Roche), and disrupted at 4° C. by N2 decompression using a cell disruption bomb (Parr Instrument). Following centrifugation at 1000 RPM for 10 min at 4° C., the supernatant was suspended in buffer A and centrifuged again at 19000 RPM for 60 min at 4° C. The pellet was then suspended in 10 mM HEPES, pH 7.4, 1 mM EDTA, 250 mM Sucrose (Buffer B), and 1× Complete EDTA-free protease inhibitor cocktail and homogenized using a potter. Membranes were flash frozen in liquid N2 and stored at −80° C. [33P]sphingosine 1-phosphate (3000 Ci/mmol; American Radiolabeled Chemicals, Inc.) was added to test compounds in DMSO. […] Specific binding was calculated by subtracting remaining radioactivity in the presence of 1000-fold excess of unlabeled S1P. Binding data were analyzed using the GraphPad Prism program.
(§1) Measurements of 35S-GTPγS Binding:
After 60 min incubation at 30° C. on a shaker, plates were centrifuged for 10 min at 2000 RPM. […] Triplicate samples were averaged and expressed as % response relative to S1P activation in absence of compound (n=2).
(GTPγS resists hydrolysis and so accumulates on activated G proteins.)

Assay [2] concerns the target T1, S1P1. Kind of assay: Receptor binding assay ([33P]sphingosine 1-phosphate, SPA) on S1P1 membranes. To be noted: membranes from CHO cells expressing S1P1. As for the experimental part:
(§2) Receptor binding assay: Membranes were prepared from CHO cells expressing S1P1 or S1P3 for use in ligand and 35S-GTPγS binding studies. Cells were suspended in 50 mM TRIS, pH 7.4, 2 mM EDTA, 250 mM Sucrose (buffer A) and 1× Complete protease inhibitor cocktail (Roche), and disrupted at 4° C. by N2 decompression using a cell disruption bomb (Parr Instrument). Following centrifugation at 1000 RPM for 10 min at 4° C., the supernatant was suspended in buffer A and centrifuged again at 19000 RPM for 60 min at 4° C. The pellet was then suspended in 10 mM HEPES, pH 7.4, 1 mM EDTA, 250 mM Sucrose (Buffer B), and 1× Complete EDTA-free protease inhibitor cocktail and homogenized using a potter. Membranes were flash frozen in liquid N2 and stored at −80° C. [33P]sphingosine 1-phosphate (3000 Ci/mmol; American Radiolabeled Chemicals, Inc.) was added to test compounds in DMSO. Membranes and WGA SPA beads (GE Healthcare) were added to give a final volume of 100 μl in 96-well plates with assay concentrations of […] [33P]sphingosine 1-phosphate (respectively for S1P1 or S1P3), 50 mM HEPES, pH 7.5, 5 mM MgCl2, 100 mM NaCl, 0.4% fatty acid-free BSA, 1-5 μg/well of proteins and 100 μg/well of WGA SPA beads. Binding was performed for 60 min at RT on a shaker and bound radioactivity was measured on a PerkinElmer 1450 MicroBeta counter. Specific binding was calculated by subtracting remaining radioactivity in the presence of 1000-fold excess of unlabeled S1P. Binding data were analyzed using the GraphPad Prism program.

The target in a further assay is S1P3 (Homo sapiens (Human), UniProt Q99500). Kind of assay: 35S-GTPγS binding, S1P3 membranes. It is filed as biochemical. To be noted: membranes from CHO cells expressing S1P3. The procedure: as §2, §1
Membranes (1 to 10 μg protein) prepared as described above, were incubated in 96-well Scintiplates (PerkinElmer) with test compounds diluted in DMSO, in 180 μl of 20 mM HEPES, pH 7.4, 10 mM MgCl2, 2 μg/well Saponin, 0.2% fatty acid free BSA (Assay buffer), 140 mM NaCl and 1.7 μM GDP. The assay was initiated with the addition of 20 μl of 1.5 nM [35S]-GTPγS (1100 Ci/mmol; GE Healthcare) in assay buffer. After 60 min incubation at 30° C. on a shaker, plates were centrifuged for 10 min at 2000 RPM. Supernatant was discarded and membrane bound radioactivity was measured on a PerkinElmer 1450 MicroBeta counter. Triplicate samples were averaged and expressed as % response relative to S1P activation in absence of compound (n=2).

T1 sequence (P21453 whole entry, species assumed): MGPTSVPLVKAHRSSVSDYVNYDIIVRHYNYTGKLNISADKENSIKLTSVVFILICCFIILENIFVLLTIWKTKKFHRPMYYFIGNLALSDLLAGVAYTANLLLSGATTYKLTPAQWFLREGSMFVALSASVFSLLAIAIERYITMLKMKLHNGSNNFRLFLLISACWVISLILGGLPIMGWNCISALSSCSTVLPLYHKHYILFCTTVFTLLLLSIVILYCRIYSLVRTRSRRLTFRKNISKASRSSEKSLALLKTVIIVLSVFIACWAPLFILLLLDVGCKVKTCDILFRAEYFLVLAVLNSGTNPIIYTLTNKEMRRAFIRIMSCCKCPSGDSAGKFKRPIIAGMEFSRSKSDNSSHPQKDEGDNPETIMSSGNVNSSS
Sequence of S1P3 (Q99500 whole entry, species assumed): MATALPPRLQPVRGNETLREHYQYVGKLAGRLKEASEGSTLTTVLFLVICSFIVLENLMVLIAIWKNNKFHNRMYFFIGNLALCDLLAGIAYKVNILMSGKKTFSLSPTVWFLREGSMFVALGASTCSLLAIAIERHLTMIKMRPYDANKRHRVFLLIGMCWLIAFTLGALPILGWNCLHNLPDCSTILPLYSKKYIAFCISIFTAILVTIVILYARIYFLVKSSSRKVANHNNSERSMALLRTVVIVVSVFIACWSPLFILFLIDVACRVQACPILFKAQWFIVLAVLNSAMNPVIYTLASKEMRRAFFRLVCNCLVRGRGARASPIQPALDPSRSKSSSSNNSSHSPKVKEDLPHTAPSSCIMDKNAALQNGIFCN

The EC50 is the concentration giving half of the maximal effect. Higher therefore signals a need for much substance. A word on the Ki: it is the dissociation constant of the complex between target and ligand, obtained from inhibition or displacement. Higher therefore signals a looser hold on the target. In the case of `CC1CCCCN1c1ccc(-c2nc(-c3ccc4[nH]cnc4c3)no2)cc1C(F)(F)F` (stereo not drawn) [Compound 1, 5-{5-[4-(2-methylpiperidin-1-yl)-3-(trifluoromethyl)phenyl]-1,2,4-oxadiazol-3-yl}-1H-benzimidazole], the EC50 came out at 11 nM at S1P1 [1] and 621 nM on S1P3. On S1P1 [2], this compound had a Ki of 5 nM.
As to `Cc1cc(-c2nc(-c3ccc4[nH]cnc4c3)no2)cnc1N1CCCCC1C` (stereo not drawn) [Compound 3, 5-{5-[5-methyl-6-(2-methylpiperidin-1-yl)pyridin-3-yl]-1,2,4-oxadiazol-3-yl}-1H-benzimidazole], the EC50 at S1P1 [1] is 94 nM. Besides, on S1P1 [2], the Ki stood at 38 nM.
Consider `COCc1cc(-c2nc(-c3ccc4[nH]cnc4c3)no2)ccc1-c1ccccc1C` [Compound 4, 5-{5-[2-(methoxymethyl)-2′-methylbiphenyl-4-yl]-1,2,4-oxadiazol-3-yl}-1H-benzimidazole], for which the figures for the EC50 on S1P1 [1] and at S1P3 were 8.4 nM and 325 nM, respectively. In addition, the Ki on S1P1 [2] stood at 5 nM.
At S1P1 [1], `Cc1ccccc1-c1ccc(-c2nc(-c3ccc4nc[nH]c4c3)no2)cc1CN(C)C` [Compound 5, 1-{4-[3-(1H-benzimidazol-6-yl)-1,2,4-oxadiazol-5-yl]-2′-methylbiphenyl-2-yl}-N,N-dimethylmethanamine] showed an EC50 of 3.4 nM. Further, at S1P1 [2], the inhibition constant Ki is 5 nM.
`CC1CCCCN1c1ccc(-c2nc(-c3ccc4c(c3)CNCC4)no2)cc1C(F)(F)F` (stereo not drawn) [Compound 10, 7-{5-[4-(2-methylpiperidin-1-yl)-3-(trifluoromethyl)phenyl]-1,2,4-oxadiazol-3-yl}-1,2,3,4-tetrahydroisoquinoline]: the EC50 was determined as 12 nM on S1P1 [1] and 584 nM on S1P3. At S1P1 [2], the Ki came to 3 nM.
The like results for `CC1CCCCN1c1ccc(-c2nc(-c3ccc4c(c3)CNCC4)no2)cc1NS(C)(=O)=O` (stereo not drawn) [Compound 11, N-{2-(2-methylpiperidin-1-yl)-5-[3-(1,2,3,4-tetrahydroisoquinolin-7-yl)-1,2,4-oxadiazol-5-yl]phenyl}methanesulfonamide] were, in that order, 6 nM, 159 nM and 4 nM.
At S1P1 [1], `CC1CCCCN1c1ccc(-c2nc(-c3ccc4c(c3)CNCC4)no2)cc1C#N` (stereo not drawn) [Compound 12, 2-(2-methylpiperidin-1-yl)-5-[3-(1,2,3,4-tetrahydroisoquinolin-7-yl)-1,2,4-oxadiazol-5-yl]benzonitrile] displayed an EC50 of 9 nM. The same compound returned a Ki on S1P1 [2] of 0.8 nM.
The like results for `COCc1cc(-c2nc(-c3ccc4c(c3)CNCC4)no2)ccc1-c1ccccc1C` [Compound 15, 7-{5-[2-(methoxymethyl)-2′-methylbiphenyl-4-yl]-1,2,4-oxadiazol-3-yl}-1,2,3,4-tetrahydroisoquinoline] were, in that order, 6 nM and 1 nM.
The like results for `COCc1cc(-c2nc(-c3ccc4c(c3)CN(CC(=O)O)CC4)no2)ccc1-c1ccccc1C` [Compound 16, [7-{5-[2-(methoxymethyl)-2′-methylbiphenyl-4-yl]-1,2,4-oxadiazol-3-yl}-3,4-dihydroisoquinolin-2(1H)-yl]acetic acid] were, in that order, 2.1 nM and 0.7 nM.
On S1P1 [1], `CC1CCCCN1c1ccc(-c2nc(-c3ccc4[nH]ccc4c3)no2)cc1NS(C)(=O)=O` (stereo not drawn) [Compound 22, N-[5-[3-(1H-indol-5-yl)-1,2,4-oxadiazol-5-yl]-2-(2-methylpiperidin-1-yl)phenyl]methanesulfonamide] had an EC50 of 16 nM. Further, the Ki on S1P1 [2] turned out to be 164 nM.
In the case of `COc1cc(-c2nc(-c3ccc4[nH]ncc4c3)no2)ccc1-c1cscc1C` [Compound 24, 5-{5-[3-methoxy-4-(4-methyl-3-thienyl)phenyl]-1,2,4-oxadiazol-3-yl}-1H-indazole], it took 4 nM to reach a half-maximal effect at S1P1 [1] (EC50). At S1P1 [2], this compound registered a Ki of 3 nM.
The like results for `Cc1ccccc1-c1ccc(-c2nc(-c3ccc4[nH]ncc4c3)no2)cc1C` [Compound 25, 5-[5-(2,2′-dimethylbiphenyl-4-yl)-1,2,4-oxadiazol-3-yl]-1H-indazole] were, in that order, 32 nM and 11 nM.
As to `CCC1CCCCN1c1ccc(-c2nc(-c3ccc4[nH]cnc4c3)no2)cc1COC` (stereo not drawn) [Compound 27, 5-{5-[4-(2-ethylpiperidin-1-yl)-3-(methoxymethyl)phenyl]-1,2,4-oxadiazol-3-yl}-1H-benzimidazole], at S1P1 [1], the EC50 stood at 17 nM. In addition, on S1P1 [2], the Ki came to 4.26 nM.

(Values after patent US8741923B2, “Oxadiazole fused heterocyclic derivatives useful for the treatment of multiple sclerosis” (Merck Serono SA, priority 2008, dated 2014).)
